Results reported in patent publication US5130307A, “Aminoesters of rapamycin” (American Home Products Corporation, priority 1991, dated 1992).
Values after ≈ are worked out from the molar mass of the structure shown.

Legend:
[1] = test system: pinch skin graft from male DBA/2 donors transplanted to male BALB/c recipients; assay: survival time of pinch skin graft; format: in vivo; details: for Skin Graft (days + SD), mean graft survival time: intraperitoneally
Protocol: (§1) Immunosuppressive activity was evaluated in an in vitro standard pharmacological test procedure to measure lymphocyte proliferation (LAF) and in two in vivo standard pharmacological test procedures. The first in vivo procedure was a popliteal lymph node (PLN) test procedure which measured the effect of compounds of this invention on a mixed lymphocyte reaction and the second in vivo procedure evaluated the survival time of a pinch skin graft.
The second in vivo test procedure is designed to determine the survival time of pinch skin graft from male DBA/2 donors transplanted to male BALB/c recipients. The method is adapted from Billingham R.E. and Medawar P.B., J. Exp. Biol. 28:385-402, (1951). Briefly, a pinch skin graft from the donor is grafted on the dorsum of the recipient as a homograft, and an autograft is used as control in the same region. […] Untreated recipients serve as rejection control. The graft is monitored daily and observations are recorded until the graft becomes dry and forms a blackened scab. This is considered as the rejection day. The mean graft survival time (number of days ±S.D.) of the drug treatment group is compared with the control group.

[2] = test system: Candida albicans ATCC 38246; assay: antifungal plate test, MIC; format: cell-based; details: ATCC38246
Protocol: (§2) The following represents the typical procedure used. Compound to be tested was placed on sterile dried 1/4" plate disks, and allowed to dry. Agar plates were seeded with fungi and allowed to solidify. The impregnated disks were placed on the seeded Agar surface and incubated for the time required for the particular culture. Results are expressed in MIC (μg/ml) to inhibit growth.

[3] = test system: Candida albicans ATCC 10231; assay: antifungal plate test, MIC; format: cell-based; details: ATCC10231
Protocol: as §2

[4] = test system: Candida albicans ATCC 38248; assay: antifungal plate test, MIC; format: cell-based; details: ATCC38248
Protocol: as §2

[5] = test system: Candida albicans 3669; assay: antifungal plate test, MIC; format: cell-based
Protocol: as §2

[6] = test system: Candida albicans ATCC 38247; assay: antifungal plate test, MIC; format: cell-based; details: ATCC38247
Protocol: as §2

[7] = test system: popliteal lymph node; assay: popliteal lymph node (PLN) test procedure, in vivo mixed lymphocyte reaction; set-up: species or system C3H mice (BALB/c donors)
Protocol: as §1
A mixed lymphocyte reaction (MLR) occurs when lymphoid cells from genetically distinct animals are combined in tissue culture. Each stimulates the other to undergo blast transformation which results in increased DNA synthesis that can be quantified by the incorporation of tritiated thymidine. Since stimulating a MLR is a function of disparity at Major Histocompatibility antigens, an in vivo popliteal lymph node (PLN) test procedure closely correlates to host vs. graft disease. Briefly, irradiated spleen cells from BALB/c donors are injected into the right hind foot pad of recipient C3H mice. The drug is given daily, p.o. from Day 0 to Day 4. On Day 3 and Day 4, tritiated thymidine is given i.p., b.i.d. On Day 5, the hind popliteal lymph nodes are removed and dissolved, and radioactivity counted. […] Percent suppression is calculated using the non-drug treated animals as allogenic control. […]

[8] = test system: experimental allergic encephalomyelitis; details: in vivo; cited from earlier work
[9] = alone or in combination with picibanil; cited from earlier work
[10] = test system: Candida albicans; details: in vitro and in vivo; cited from earlier work
[11] = test system: IgE-like antibodies; details: cited from earlier work
[12] = test system: transplant rejection; details: cited from earlier work

MIC [2] [µg/mL]	MIC [3] [µg/mL]	MIC [4] [µg/mL]	MIC [5] [µg/mL]	MIC [6] [µg/mL]	Compound	Skin Graft (days + SD), mean graft survival time [1] [days]	survival time of the skin graft (in words) ([1]; untreated grafts typically rejected within 6-7 days)	effect on T cell proliferation in PLN (in words) ([7]; negative ratio)	effectiveness in experimental allergic encephalomyelitis model (in words) [8]	antitumor activity (in words) [9]	PLN (ratio) ([7]; p.o. daily Day 0 to Day 4, ratio, rapamycin 1.0)	antifungal activity (in words) [10]	inhibition of the formation of IgE-like antibodies (in words) [11]	inhibition of transplant rejection / immunosuppressive effect (in words) [12]
> 0.4	0.2 (≈ 0.161 µM)	0.2 (≈ 0.161 µM)	0.4 (≈ 0.322 µM)	0.1 (≈ 0.0805 µM)	CO[C@H]1C[C@@H]2CC[C@@H](C)[C@@](O)(O2)C(=O)C(=O)N2CCCC[C@H]2C(=O)O[C@H]([C@H](C)C[C@@H]2CC[C@@H](OC(=O)[C@H](CCCCNC(=O)OC(C)(C)C)NC(=O)OC(C)(C)C)[C@H](OC)C2)CC(=O)[C@H](C)/C=C(\C)[C@@H](O)[C@@H](OC)C(=O)[C@H](C)C[C@H](C)/C=C/C=C/C=C/1C [Example 12, Rapamycin-42-ester with N^α, N^ε -bis[(1,1-dimethylethoxy)carbonyl]-L-lysine]	12.0 ± 2.0	increased survival time observed in the skin graft test procedure	may cause T cell proliferation in the PLN test procedure	–	–	–	–	–	–
–	–	–	–	–	CO[C@H]1C[C@@H]2CC[C@@H](C)[C@@](O)(O2)C(=O)C(=O)N2CCCC[C@H]2C(=O)O[C@H]([C@H](C)C[C@@H]2CC[C@@H](O)[C@H](OC)C2)CC(=O)[C@H](C)/C=C(\C)[C@@H](O)[C@@H](OC)C(=O)[C@H](C)C[C@H](C)/C=C/C=C/C=C/1C [Rapamycin]	12.0 ± 1.7	–	–	effective in the experimental allergic encephalomyelitis model	has been shown to have antitumor activity	1.0	antifungal activity, particularly against Candida albicans, both in vitro and in vivo	effectively inhibited the formation of IgE-like antibodies	effective in inhibiting transplant rejection
